Earlier results, collected in patent US20250195401A1, “COSMETIC COMPOSITION OF LIPOSOMES CONTAINING AN EXTRACT OF HAEMATOCOCCUS PLUVIALIS, TETRAHEXYLDECYL ASCORBATE AND ECTOIN” (IMAGE INTERNATIONAL MANUFACTURING, LLC, priority 2023, published 2025).

Conditions: 6 h at 190° C.

stability at high temperatures: very stable
Structure (SMILES): CC1=N[C@H](C(=O)O)CCN1 [Ectoine, (4S)-2-methyl-1,4,5,6-tetrahydropyrimidine-4-carboxylic acid]
